Tests used:
[1] = tested on: human coronary artery smooth muscle cells; test: Anti-proliferative activity in non-synchronized cultured human coronary artery smooth muscle cells stimulated with two percent fetal bovine serum; assay type: cell-based; details: for effect on the anti-proliferative rapamycin dose response curve: added to cells treated with rapamycin
Excerpt: The multiple curves represent various concentrations of mycophenolic acid ranging from zero to one thousand nanomolar concentrations. […] This potentiation observed in cultured coronary artery smooth muscle cells preferably translates to an enhancement in anti-restenotic efficacy following vascular injury and a reduction in the required amount of either agent to achieve the desired anti-restenotic effect.
FIG. 58 illustrates, in graphical format, the anti-proliferative activity of cladribine in non-synchronized cultured human coronary artery smooth muscle cells stimulated with two percent fetal bovine serum.
The multiple curves represent various concentrations of cladribine ranging from zero to nine hundred nanomolar concentrations. […] As illustrated, the percent inhibition increases substantially as the dose of cladribine increases.

[2] = tested on: human coronary artery smooth muscle cell proliferation; test: In vitro cell culture study of coronary artery smooth muscle cell proliferation (trichostatin A); assay type: cell-based
Excerpt: FIG. 51 is a graph of the inhibition of coronary artery smooth muscle cells by trichostatin A in a cell culture study.

[3] = assay type: physicochemical; details: 0.02 weight percent per total basecoat solids
Excerpt: Referring to FIG. 75, there is illustrated in graphical format, the results of the same drug screening as described above with the solution applied to a cobalt-chromium, 18 mm stent. In this test, two sets of solution samples were utilized, one with sirolimus and polymer solution containing the antioxidant and one with sirolimus and polymer solution containing no antioxidant. The antioxidant utilized was 0.02 weight percent BHT per total basecoat solids. The test was utilized to determine the percent drug content change over a time period of 0 to 12 weeks under two conditions; namely, 40° C. with 75 percent relative humidity, and ambient conditions (25° C.).

[4] = Drug concentration in liquid formulations by liquid chromatography / HPLC; assay type: physicochemical
Description: Table 8, shown below, summarizes the concentrations of the excipient, the co-solvents and the drug for four different liquid formulations in accordance with exemplary embodiments of the present invention.
As set forth above, a liquid formulation comprising 4 mg/ml of sirolimus may be achieved utilizing PEG 200 as the excipient and ethanol and water as the co-solvents. […] The high concentration of sirolimus is necessary to maintain an effective and high local concentration of sirolimus after delivery to the site. The liquid formulations are flowable at room temperature and are compatible with a number of delivery devices. Specifically, each of these formulations were successfully injected through an infusion catheter designated by the brand name CRESCENDO™ from Cordis Corporation, Miami, Fla., as described in more detail subsequently, and the EndoBionics Micro Syringe™ Infusion Catheter available from EndoBionics, Inc., San Leandros, Calif., as described in more detail above, in porcine studies.
In another exemplary embodiment, the liquid formulation of sirolimus comprises water and ethanol as co-solvents and Vitamin E TPGS as the excipient. The liquid formulation was created utilizing the following process. Two hundred milligrams of sirolimus and two grams of ethanol were added to a pre-weighed twenty milliliter scintillation vial. […]

Cell viability assay = assay type: cell-based
Excerpt: (§1) The multiple curves represent various concentrations of topotecan ranging from zero to three hundred nanomolar concentrations.
(§2) The multiple curves represent various concentrations of etoposide ranging from zero to eight hundred nanomolar concentrations.

[5] = tested on: human coronary artery smooth muscle cells; test: Anti-proliferative activity in synchronized cultured human coronary artery smooth muscle cells stimulated with two percent fetal bovine serum; assay type: cell-based; details: for effect on the anti-proliferative rapamycin dose response curve: added to cells treated with rapamycin
Excerpt: as §1, §2
The multiple curves represent various concentrations of Panzem® ranging from zero to 100 micromolar concentrations.

[6] = tested on: human coronary artery smooth muscle cell survival; test: MTS cytotoxicity assay; assay type: cell-based; details: 6.6 to 30,000.00 nanomolar tested
Excerpt: Typically, a control is utilized to determine baseline toxicity.

With `COc1c(C)c2c(c(O)c1C/C=C(\C)CCC(=O)O)C(=O)OC2` [mycophenolic acid] the “effect on the anti-proliferative rapamycin dose response curve” value [1] was “potentiates the anti-proliferative activity of rapamycin”.

With `CC(/C=C/C(=O)NO)=C\[C@@H](C)C(=O)c1ccc(N(C)C)cc1` [trichostatin A] the “inhibition of human coronary artery smooth muscle cell proliferation” value [2] was “completely inhibit” and the IC50 ([2]; human coronary artery smooth muscle cells, read-out: anti-proliferative IC50) was ~6 nM.

With `Cc1cc(C(C)(C)C)c(O)c(C(C)(C)C)c1` [BHT, Butylated Hydroxytoluene] the “effect on drug degradation on coated stent” value [3] was “lessens drug degradation at both 8 weeks and 12 weeks under ambient conditions”.

With `Nc1nc(Cl)nc2c1ncn2[C@H]1C[C@H](O)[C@@H](CO)O1` [Cladribine, 2-chlorodeoxyadenosine] the “effect on the anti-proliferative rapamycin dose response curve” value [1] was “potentiate the anti-proliferative activity of rapamycin” and the “inhibition of human coronary artery smooth muscle cell proliferation” value ([1]; two percent fetal bovine serum) was “completely inhibits”.

In the case of `CO[C@H]1C[C@@H]2CC[C@@H](C)[C@@](O)(O2)C(=O)C(=O)N2CCCC[C@H]2C(=O)O[C@H]([C@H](C)C[C@@H]2CC[C@@H](OC(=O)C(C)(CO)CO)[C@H](OC)C2)CC(=O)[C@H](C)/C=C(\C)[C@@H](O)[C@@H](OC)C(=O)[C@H](C)C[C@H](C)/C=C/C=C/C=C/1C` [CCI-779], the “concentration in the final solution (HPLC assay)” value ([4]; ethanol (less than two percent), Vitamin E TPGS and water) is reported as 15000 µg/mL.

In the case of `COc1cc([C@@H]2c3cc4c(cc3[C@@H](O[C@@H]3O[C@@H]5CO[C@@H](C)O[C@H]5[C@H](O)[C@H]3O)[C@H]3COC(=O)[C@H]23)OCO4)cc(OC)c1O` [etoposide], the “cytotoxicity in cell viability assay” value (Cell viability assay; concentrations up to ten micromolar) is reported as “non-cytotoxic” and the “effect on the anti-proliferative rapamycin dose response curve” value [5] is reported as “potentiate the anti-proliferative activity of rapamycin”.

In the case of `CC[C@@]1(O)C(=O)OCc2c1cc1n(c2=O)Cc2cc3c(CN(C)C)c(O)ccc3nc2-1` [topotecan], the “cytotoxicity in cell viability assay” value (Cell viability assay; concentrations up to one micromolar) is reported as “non-cytotoxic” and the “effect on the anti-proliferative rapamycin dose response curve” value [5] is reported as “potentiate the anti-proliferative activity of rapamycin”.

With `CO[C@H]1C[C@@H]2CC[C@@H](C)[C@@](O)(O2)C(=O)C(=O)N2CCCC[C@H]2C(=O)O[C@H]([C@H](C)C[C@@H]2CC[C@@H](O)[C@H](OC)C2)CC(=O)[C@H](C)/C=C(\C)[C@@H](O)[C@@H](OC)C(=O)[C@H](C)C[C@H](C)/C=C/C=C/C=C/1C` [rapamycin] the “concentration relative to the solubility of sirolimus in water” value ([4]; 4 mg/ml formulation with PEG 200, ethanol and water) was “about four hundred to about one thousand times higher”.

With `COc1cc2c(cc1O)CC[C@@H]1[C@@H]2CC[C@]2(C)[C@@H](O)CC[C@@H]12` [Panzem®, 2-methoxyestradiol] the “concentrations that do not reduce human coronary artery smooth muscle cell survival” value [6] was “up to 30,000.00 nanomolar”, the “effect on the anti-proliferative rapamycin dose response curve” value [5] was “potentiation of rapamycin by Panzem®” and the anti-proliferative activity ([5]; two percent fetal bovine serum, alone) was “extremely effective inhibitor of human coronary artery smooth muscle cell proliferation in vitro”.

Reference: patent publication US8182527B2, “Heparin barrier coating for controlled drug release” (Cordis Corporation, priority 2001, dated 2012)
